The values below come from patent US20060252807A1, “Novel ortho-terphenyl inhibitors of p38 kinase and methods of treating inflammatory disorders” (Kalypsys, Inc., priority 2005, published 2006).

pIC50: −log10 of the molar value.

For this experiment, the target named is T1, active p38 alpha enzyme (Upstate Biotechnology) (Homo sapiens, UniProt Q16539).
T1 construct: purchased Upstate Biotechnology
T1 sequence (Q16539 whole entry): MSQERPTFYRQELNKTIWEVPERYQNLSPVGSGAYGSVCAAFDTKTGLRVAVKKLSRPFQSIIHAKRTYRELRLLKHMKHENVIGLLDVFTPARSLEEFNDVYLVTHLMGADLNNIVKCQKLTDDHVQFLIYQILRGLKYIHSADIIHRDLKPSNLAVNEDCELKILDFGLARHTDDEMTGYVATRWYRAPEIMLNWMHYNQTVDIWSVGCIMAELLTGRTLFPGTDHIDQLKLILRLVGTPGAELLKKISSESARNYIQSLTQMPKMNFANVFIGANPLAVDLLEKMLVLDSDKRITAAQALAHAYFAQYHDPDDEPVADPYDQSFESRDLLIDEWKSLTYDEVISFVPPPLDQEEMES
Nature of the experiment: p38α biochemical assay (ATP turnover, luminescent detection, Cambrex PKlight). The following applies: p38α kinase; Table 1 Biological Activity. The method, boiled down: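 Luminescent PKlight readout of total ATP consumption follows a 2 h, 30C kinase reaction. Enzyme and MapkapK2 substrate run with 1.4 uM ATP (final) in buffer containing Mg2+, Ca2+, chelators, glycerol, reducing agent and BSA; test compounds added by pintool from DMSO.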
In turn, `CCC(C)CNC(=O)c1csc(-c2sc(C)nc2-c2ccc(F)cc2)n1` (stereo not shown) [Example 1723] showed a pIC50 of under 6.00.

Consider `Cc1nc(-c2ccc(F)cc2)c(-c2nc(C(=O)NC(C)C(C)C)cs2)s1` (stereo not shown) [Example 1724], for which the negative logarithm of the IC50 (pIC50) was under 6.00.

On to `Cc1nc(-c2ccc(F)cc2)c(-c2nc(C(=O)NCCC(C)C)cs2)s1` [Example 1725], for which the negative logarithm of the IC50 (pIC50) was at least 6.00.

As to `Cc1nc(-c2ccc(F)cc2)c(-c2nc(C(=O)NCCN(C)C)cs2)s1` [Example 1726], the pIC50 is under 6.00.

In the case of `COCC(C)NC(=O)c1csc(-c2sc(C)nc2-c2ccc(F)cc2)n1` (stereo not shown) [Example 1727], the pIC50 was at least 6.00.

`CCC(CO)NC(=O)c1csc(-c2sc(C)nc2-c2ccc(F)cc2)n1` (stereo not shown) [Example 1728] gave a pIC50 of at least 6.00.

Molecule `CCC(CO)NC(=O)c1csc(-c2sc(C)nc2-c2ccc(F)cc2)n1` (stereo not shown) [Example 1729] gave a pIC50 of at least 6.00.

On to `Cc1nc(-c2ccc(F)cc2)c(-c2nc(C(=O)NCCCCO)cs2)s1` [Example 1730], for which the negative-log IC50 (pIC50) is at least 6.00.

`Cc1nc(-c2ccc(F)cc2)c(-c2nc(C(=O)NCc3ccco3)cs2)s1` [Example 1731] had a pIC50 of at least 6.00.

Take `Cc1nc(-c2ccc(F)cc2)c(-c2nc(C(=O)NC3CCCCC3)cs2)s1` [Example 1732]: the pIC50 is at least 6.00.

The molecule `Cc1nc(-c2ccc(F)cc2)c(-c2nc(C(=O)NCC3CCCO3)cs2)s1` (stereo not shown) [Example 1733] showed a pIC50 of at least 6.00.

The molecule `Cc1nc(-c2ccc(F)cc2)c(-c2nc(C(=O)NCCC(C)(C)C)cs2)s1` [Example 1734] had a pIC50 of under 6.00.

`Cc1nc(-c2ccc(F)cc2)c(-c2nc(C(=O)NC(C)CC(C)C)cs2)s1` (stereo not shown) [Example 1735] showed a pIC50 of under 6.00.

The molecule `Cc1nc(-c2ccc(F)cc2)c(-c2nc(C(=O)NC3CONC3=O)cs2)s1` (stereo not shown) [Example 1736] gave a pIC50 of under 6.00.

Regarding `Cc1nc(-c2ccc(F)cc2)c(-c2nc(C(=O)NN3CCOCC3)cs2)s1` [Example 1737], the pIC50 was under 6.00.

Turning to `Cc1nc(-c2ccc(F)cc2)c(-c2nc(C(=O)NC(CO)C(C)C)cs2)s1` (stereo not shown) [Example 1738], the pIC50 is at least 6.00.

The molecule `Cc1nc(-c2ccc(F)cc2)c(-c2nc(C(=O)NCc3ccccc3)cs2)s1` [Example 1739] had a pIC50 of at least 6.00.

On to `Cc1nc(-c2ccc(F)cc2)c(-c2nc(C(=O)NCc3cccnc3)cs2)s1` [Example 1740], for which the pIC50 is at least 6.00.

`Cc1nc(-c2ccc(F)cc2)c(-c2nc(C(=O)NCc3ccccn3)cs2)s1` [Example 1741] gave a pIC50 of at least 6.00.

As for `Cc1nc(-c2ccc(F)cc2)c(-c2nc(C(=O)NCc3ccncc3)cs2)s1` [Example 1742], the pIC50 is at least 6.00.

With `Cc1nc(-c2ccc(F)cc2)c(-c2nc(C(=O)NCc3cccs3)cs2)s1` [Example 1743], the pIC50 is at least 6.00.

As to `Cc1nc(-c2ccc(F)cc2)c(-c2nc(C(=O)NC3CCC(C)CC3)cs2)s1` (stereo not shown) [Example 1744], the pIC50 was at least 6.00.

In turn, `Cc1nc(-c2ccc(F)cc2)c(-c2nc(C(=O)NCC3CCCCC3)cs2)s1` [Example 1745] had a pIC50 of at least 6.00.

With `Cc1nc(-c2ccc(F)cc2)c(-c2nc(C(=O)NC3CCCCCC3)cs2)s1` [Example 1746], the pIC50 was at least 6.00.

Molecule `Cc1nc(-c2ccc(F)cc2)c(-c2nc(C(=O)NC3CCCCC3C)cs2)s1` (stereo not shown) [Example 1747] showed a negative logarithm of the IC50 (pIC50) of at least 6.00.

The molecule `Cc1nc(-c2ccc(F)cc2)c(-c2nc(C(=O)NCCN3CCCC3)cs2)s1` [Example 1748] had a pIC50 of at least 6.00.

Turning to `Cc1nc(-c2ccc(F)cc2)c(-c2nc(C(=O)NN3CCN(C)CC3)cs2)s1` [Example 1749], the pIC50 is under 6.00.

`CCN(CC)CCNC(=O)c1csc(-c2sc(C)nc2-c2ccc(F)cc2)n1` [Example 1750] gave a pIC50 of at least 6.00.

Molecule `Cc1cccc(CNC(=O)c2csc(-c3sc(C)nc3-c3ccc(F)cc3)n2)c1` [Example 1751] gave a pIC50 of at least 6.00.

The molecule `Cc1nc(-c2ccc(F)cc2)c(-c2nc(C(=O)N[C@@H](C)c3ccccc3)cs2)s1` [Example 1752] gave a pIC50 of at least 6.00.

As for `Cc1nc(-c2ccc(F)cc2)c(-c2nc(C(=O)N[C@H](C)c3ccccc3)cs2)s1` [Example 1753], the pIC50 is at least 6.00.

On to `Cc1nc(-c2ccc(F)cc2)c(-c2nc(C(=O)NCCc3ccccc3)cs2)s1` [Example 1754], for which the pIC50 was at least 6.00.

For the molecule `Cc1nc(-c2ccc(F)cc2)c(-c2nc(C(=O)NCc3ccccc3C)cs2)s1` [Example 1755], the pIC50 was at least 6.00.

Consider `Cc1ccc(CNC(=O)c2csc(-c3sc(C)nc3-c3ccc(F)cc3)n2)cc1` [Example 1756], for which the pIC50 is at least 6.00.

`Cc1cnc(CNC(=O)c2csc(-c3sc(C)nc3-c3ccc(F)cc3)n2)cn1` [Example 1757] had a pIC50 of at least 6.00.

In turn, `Cc1nc(-c2ccc(F)cc2)c(-c2nc(C(=O)NCc3cccc(F)c3)cs2)s1` [Example 1758] showed a pIC50 of at least 6.00.

`Cc1nc(-c2ccc(F)cc2)c(-c2nc(C(=O)NCc3ccc(F)cc3)cs2)s1` [Example 1759] gave a negative logarithm of the IC50 (pIC50) of at least 6.00.

On to `Cc1nc(-c2ccc(F)cc2)c(-c2nc(C(=O)NCc3ccccc3F)cs2)s1` [Example 1760], for which the pIC50 is at least 6.00.

As for `Cc1nc(-c2ccc(F)cc2)c(-c2nc(C(=O)NCCCn3ccnc3)cs2)s1` [Example 1761], the pIC50 is at least 6.00.

The molecule `Cc1nc(-c2ccc(F)cc2)c(-c2nc(C(=O)NCCC3CCCN3C)cs2)s1` (stereo not shown) [Example 1762] gave a pIC50 of under 6.00.

`Cc1nc(-c2ccc(F)cc2)c(-c2nc(C(=O)NCCN3CCCCC3)cs2)s1` [Example 1763]: the pIC50 was under 6.00.

Molecule `Cc1nc(-c2ccc(F)cc2)c(-c2nc(C(=O)NC(C)CCCC(C)C)cs2)s1` (stereo not shown) [Example 1764] had a pIC50 of under 6.00.

For `Cc1nc(-c2ccc(F)cc2)c(-c2nc(C(=O)NCCN3CCOCC3)cs2)s1` [Example 1765], the pIC50 was under 6.00.

For `CCOC(=O)CC(C)NC(=O)c1csc(-c2sc(C)nc2-c2ccc(F)cc2)n1` (stereo not shown) [Example 1766], the pIC50 is at least 6.00.

In the case of `Cc1nc(-c2ccc(F)cc2)c(-c2nc(C(=O)NC3CCc4ccccc43)cs2)s1` (stereo not shown) [Example 1767], the pIC50 was under 6.00.

`Cc1ccc(CCNC(=O)c2csc(-c3sc(C)nc3-c3ccc(F)cc3)n2)cc1` [Example 1768] showed a pIC50 of under 6.00.

Molecule `Cc1ccc(C)c(CNC(=O)c2csc(-c3sc(C)nc3-c3ccc(F)cc3)n2)c1` [Example 1769] gave a pIC50 of under 6.00.

Molecule `Cc1ccc([C@H](C)NC(=O)c2csc(-c3sc(C)nc3-c3ccc(F)cc3)n2)cc1` [Example 1770] had a pIC50 of under 6.00.

Take `Cc1ccc([C@@H](C)NC(=O)c2csc(-c3sc(C)nc3-c3ccc(F)cc3)n2)cc1` [Example 1771]: the pIC50 is under 6.00.

`Cc1nc(-c2ccc(F)cc2)c(-c2nc(C(=O)NCC(C)c3ccccc3)cs2)s1` (stereo not shown) [Example 1772]: the pIC50 was at least 6.00.

For the molecule `Cc1nc(-c2ccc(F)cc2)c(-c2nc(C(=O)NCC(C)c3ccccc3)cs2)s1` (stereo not shown) [Example 1773], the pIC50 is under 6.00.

Molecule `Cc1nc(-c2ccc(F)cc2)c(-c2nc(C(=O)NCCCc3ccccc3)cs2)s1` [Example 1774] showed a pIC50 of under 6.00.

Regarding `Cc1nc(-c2ccc(F)cc2)c(-c2nc(C(=O)NCc3ccc(C)c(C)c3)cs2)s1` [Example 1775], the pIC50 was at least 6.00.

The molecule `Cc1nc(-c2ccc(F)cc2)c(-c2nc(C(=O)NC(C)Cc3ccncc3)cs2)s1` (stereo not shown) [Example 1776] had a pIC50 of under 6.00.

`Cc1nc(-c2ccc(F)cc2)c(-c2nc(C(=O)NCCc3ccc(O)cc3)cs2)s1` [Example 1777] had a pIC50 of at least 6.00.

With `Cc1nc(-c2ccc(F)cc2)c(-c2nc(C(=O)NCCOc3ccccc3)cs2)s1` [Example 1778], the negative-log IC50 (pIC50) is at least 6.00.

In turn, `COc1ccccc1CNC(=O)c1csc(-c2sc(C)nc2-c2ccc(F)cc2)n1` [Example 1779] showed a pIC50 of at least 6.00.

Consider `COc1ccc(CNC(=O)c2csc(-c3sc(C)nc3-c3ccc(F)cc3)n2)cc1` [Example 1780], for which the pIC50 was at least 6.00.

Molecule `COc1cccc(CNC(=O)c2csc(-c3sc(C)nc3-c3ccc(F)cc3)n2)c1` [Example 1781] gave a pIC50 of at least 6.00.

With `Cc1nc(-c2ccc(F)cc2)c(-c2nc(C(=O)NCCc3ccc(F)cc3)cs2)s1` [Example 1782], the pIC50 was under 6.00.

For `Cc1nc(-c2ccc(F)cc2)c(-c2nc(C(=O)NCCc3ccccc3F)cs2)s1` [Example 1783], the pIC50 was at least 6.00.

With `Cc1nc(-c2ccc(F)cc2)c(-c2nc(C(=O)NCCc3cccc(F)c3)cs2)s1` [Example 1784], the pIC50 was at least 6.00.

Turning to `Cc1nc(-c2ccc(F)cc2)c(-c2nc(C(=O)NCc3cccc(Cl)c3)cs2)s1` [Example 1785], the pIC50 was at least 6.00.

In turn, `Cc1nc(-c2ccc(F)cc2)c(-c2nc(C(=O)NCc3ccccc3Cl)cs2)s1` [Example 1786] showed a pIC50 of at least 6.00.

As for `Cc1nc(-c2ccc(F)cc2)c(-c2nc(C(=O)NCc3ccc(Cl)cc3)cs2)s1` [Example 1787], the negative logarithm of the IC50 (pIC50) was at least 6.00.

Regarding `Cc1nc(-c2ccc(F)cc2)c(-c2nc(C(=O)NCCCN3CCCC3=O)cs2)s1` [Example 1788], the pIC50 is at least 6.00.

Consider `Cc1nc(-c2ccc(F)cc2)c(-c2nc(C(=O)NCc3ccc(F)cc3F)cs2)s1` [Example 1789], for which the negative logarithm of the IC50 (pIC50) was at least 6.00.

In turn, `Cc1nc(-c2ccc(F)cc2)c(-c2nc(C(=O)NCc3ccc(F)c(F)c3)cs2)s1` [Example 1790] showed a pIC50 of at least 6.00.

`Cc1nc(-c2ccc(F)cc2)c(-c2nc(C(=O)NCc3cc(F)cc(F)c3)cs2)s1` [Example 1791]: the pIC50 was at least 6.00.

Molecule `Cc1nc(-c2ccc(F)cc2)c(-c2nc(C(=O)NCCCN3CCOCC3)cs2)s1` [Example 1792] gave a pIC50 of at least 6.00.

The molecule `Cc1nc(-c2ccc(F)cc2)c(-c2nc(C(=O)NCCN(C(C)C)C(C)C)cs2)s1` [Example 1793] gave a negative logarithm of the IC50 (pIC50) of under 6.00.

Take `Cc1nc(-c2ccc(F)cc2)c(-c2nc(C(=O)NC(C)CCc3ccccc3)cs2)s1` (stereo not shown) [Example 1794]: the negative logarithm of the IC50 (pIC50) is under 6.00.

In the case of `Cc1nc(-c2ccc(F)cc2)c(-c2nc(C(=O)NCc3ccc(C(C)C)cc3)cs2)s1` [Example 1795], the pIC50 is under 6.00.
